Results from patent US8809314B1, “Cephalosporin compound” (Cubist Pharmaceuticals, Inc., priority 2012, dated 2014).
Converted amounts (≈) assume the structure as drawn. “And” between values parts separate entries of the source, which are not always exact repeats. Equal entries are not always repeated.

Experiments:
MRSA #712 [1] = test: Thigh infection in neutropenic mice; type: in vivo, Staphylococcus aureus; settings: MRSA #712 thigh infection, neutropenic mice, 2 SC doses at 1 and 6 hrs, 24 h, vs vehicle
Description: (§1) In vivo efficacy of (I) was evaluated against strains of MRSA, and ceftazidime-resistant Pa and Klebsiella pneumonia (Kpn) in mouse septicemia, thigh and lung infections. Septicemia: CD-1 mice received lethal bacterial inocula IP, followed by 2 doses of antibiotics SC at 1 and 6 hrs post-inoculation. Dose calculated to protect 50% of the mice (PD50) was derived based on probit analysis of percentage survival. Thigh and lung infections: Thighs or lungs of neutropenic mice were inoculated with MRSA or Pa. Two treatment doses were given SC at 1 and 6 hrs post-inoculation. Tissues were harvested at ˜24 hrs post-inoculation and bacterial burdens quantified.
(§2) II. Methods • A. Animals: Six week-old, specific pathogen free, female CD-1 mice purchased from Charles River Laboratories (Wilmington, Mass.) were used for all studies after acclimation in Cubist animal facility. All animal procedures were approved by the Cubist Institutional Animal Care and Use Committee. • B. Bacteria and In Vitro Susceptibility Testing: MRSA #712, Pseudomonas aeruginosa #2245 and #2545, and Klebsiella pneumoniae #573 are clinical isolates; Pseudomonas aeruginosa #44 is an ATCC strain (ATCC#27853). MIC was determined in MHB by standard CLSI microdilution. […] The survival of animals was recorded daily for 7 days. The antibiotic dose calculated to protect 50% of the mice (PD50) was derived based on probit analysis of percentage survival. • E. Mouse Thigh and Lung Infections: Mice were rendered neutropenic by two IP injections of cyclophosphamide 4 days (150 mg/kg) and 1 day (100 mg/kg) before bacterial inoculation. […] Tissue bacterial burdens were quantified by serial dilution and spiral plating of homogenates.

Pa #2545 = test: MIC in MHB by standard CLSI microdilution (Example 4); type: cell-based; settings: Pseudomonas aeruginosa
From the text: (§3) II. Methods • A. Animals: Six week-old, specific pathogen free, female CD-1 mice purchased from Charles River Laboratories (Wilmington, Mass.) were used for all studies after acclimation in Cubist animal facility. All animal procedures were approved by the Cubist Institutional Animal Care and Use Committee. • B. Bacteria and In Vitro Susceptibility Testing: MRSA #712, Pseudomonas aeruginosa #2245 and #2545, and Klebsiella pneumoniae #573 are clinical isolates; Pseudomonas aeruginosa #44 is an ATCC strain (ATCC#27853). MIC was determined in MHB by standard CLSI microdilution. Comparator Antibiotics Used in Animal Studies: Vancomycin hydrochloride USP was purchased from Hospira (Lake Forest, Ill.); ceftazidime hydrate from Sigma; Primaxin (imipenem and cilastatin) from Merck; ceftaroline was synthesized at a CRO. • D. Mouse Septicemia: Mice received lethal inocula of bacteria in 6% hog gastric mucin intraperitoneally (IP), followed by two treatment doses of antibiotics via subcutaneous (SC) administration at 1 and 6 hrs post-inoculation. The survival of animals was recorded daily for 7 days. The antibiotic dose calculated to protect 50% of the mice (PD50) was derived based on probit analysis of percentage survival. • E. Mouse Thigh and Lung Infections: Mice were rendered neutropenic by two IP injections of cyclophosphamide 4 days (150 mg/kg) and 1 day (100 mg/kg) before bacterial inoculation. Thigh or lung infection was induced by an intramuscular injection of 0.2 mL or intranasal inoculation of 0.1 mL inoculum preparation from an overnight bacterial culture into left thigh or nares. Tissues from one group of mice receiving no treatment (No Rx) were harvested at 1 hr for determination of baseline of bacterial burden. The remaining mice received two treatment doses of vehicles or antibiotics given SC at 1 and 6 hrs post-inoculation. Tissues from the treated mice were harvested at ˜24 hrs post-inoculation. Tissue bacterial burdens were quantified by serial dilution and spiral plating of homogenates.

Kpn #573 = test: as above; type: cell-based; settings: Klebsiella pneumoniae; Kpn #573; read-out: MIC
From the text: as §3

MRSA #712 [2] = test: as above; type: cell-based; settings: Staphylococcus aureus; MRSA #712; read-out: MIC
From the text: as §3

Pa #44 (ATCC27853) = test: as above; type: cell-based; settings: Pseudomonas aeruginosa
From the text: as §3

MRSA #712 [3] = test: Mouse septicemia (systemic infection), PD50; type: in vivo, Staphylococcus aureus; settings: CD-1 mice, IP inoculum, 2 SC doses at 1 and 6 hrs, 7 day survival
Description: as §1
II. […] MIC was determined in MHB by standard CLSI microdilution. […] The survival of animals was recorded daily for 7 days. The antibiotic dose calculated to protect 50% of the mice (PD50) was derived based on probit analysis of percentage survival. • E. Mouse Thigh and Lung Infections: Mice were rendered neutropenic by two IP injections of cyclophosphamide 4 days (150 mg/kg) and 1 day (100 mg/kg) before bacterial inoculation. […] Tissue bacterial burdens were quantified by serial dilution and spiral plating of homogenates.
III. […] The dose that protected 50% of the mice (PD50) was calculated by probit analysis based on percentage of mice surviving for 7 days post-inoculation. • C. […]

Pseudomonas aeruginosa = test: MIC measured by the method of Example 3; type: cell-based; settings: strain not named, read-out: MIC against Pseudomonas aeruginosa
Description: (§4) To prepare for MIC testing, individual colonies were isolated by streaking frozen glycerol material containing Staphylococcus or Pseudomonas spp. onto rich, non-selective, tryptic soy agar containing 5% sheep's blood (TSAB), and incubated at 37° C. for 18-24 hrs.
(§5) On the day of testing, primary cultures were started by scraping off 5-10 colonies from the TSAB plates. The material was suspended in ˜5 mL of cation adjusted Mueller Hinton Broth (CAMHB) in 14 mL culture tubes and incubated at 37° C. with aeration (200 rpm) for ˜2 hrs until the OD600 was ≧0.1.
(§6) Inoculum cultures were prepared by standardizing the primary cultures to OD600=0.1 and then adding 20 μL of the adjusted primary culture per 1 mL CAMHB for Pseudomonas and CAMHB plus 4% NaCl for MRSA so that the final inoculum density was ˜10^5 colony forming units per milliliter. Diluted inoculum cultures were used to inoculate 50 μL per well in 96 well broth microdilution assay plates. […]
(§7) Plates were incubated for 18-20 hours at 37° C. with aeration (200 rpm). Following incubation, growth was confirmed visually placing plates over a viewing apparatus (stand with a mirror underneath) and then OD600 was measured using a SpectraMax 340PC384 plate reader (Molecular Devices, Sunnyvale, Calif.). Growth was defined as turbidity that could be detected with the naked eye or achieving minimum OD600 of 0.1. […]

[4] = system: methicillin-resistant Staphylococcus aureus (MRSA); test: MIC measured by the method of Example 3; type: cell-based; settings: strain not named, read-out: MIC against methicillin-resistant Staphylococcus aureus (MRSA)
Description: as §4, §5, §6, §7

[5] = system: ceftazidime-resistant Pseudomonas aeruginosa #2545; type: in vivo; settings: Pa #2545; CD-1 mice, IP inoculum, 2 SC doses at 1 and 6 hrs, 7 day survival
Description: as §1
as §2, with “All animal procedures were approved by the Cubist Institutional Animal Care and Use Committee. • B. Bacteria and In Vitro Susceptibility Testing: MRSA #712, Pseudomonas aeruginosa #2245 and #2545, and Klebsiella pneumoniae #573 are clinical isolates; Pseudomonas aeruginosa #44 is an ATCC strain (ATCC#27853).” left out

[6] = system: Klebsiella pneumoniae #573; test: Mouse septicemia (systemic infection), PD50; type: in vivo; settings: Kpn #573; CD-1 mice, IP inoculum, 2 SC doses at 1 and 6 hrs, 7 day survival
Description: as §1
as §2, with “All animal procedures were approved by the Cubist Institutional Animal Care and Use Committee. • B. Bacteria and In Vitro Susceptibility Testing: MRSA #712, Pseudomonas aeruginosa #2245 and #2545, and Klebsiella pneumoniae #573 are clinical isolates; Pseudomonas aeruginosa #44 is an ATCC strain (ATCC#27853).” left out

## CO/N=C(\C(=O)N[C@@H]1C(=O)N2C(C(=O)[O-])=C(C[n+]3ccc(N)c(NC(=O)Nc4ccc(CCNC(=N)N)cc4)c3)CS[C@H]12)c1nc(N)sc1Cl [(I)]
MRSA #712 [1]
  Thigh (T) ED−2log: 68.9 mg/kg and 68.9 (T) mg/kg
Pa #2545
  MIC: 2 µg/mL (≈ 2.69 µM)
Kpn #573
  MIC: 1 µg/mL (≈ 1.35 µM)
MRSA #712 [2]
  MIC: 2 µg/mL (≈ 2.69 µM)
Pa #44 (ATCC27853)
  MIC: 1 µg/mL (≈ 1.35 µM)
MRSA #712 [3]
  Septicemia PD50 (± SE): 2.0 ± 0.3 mg/kg
Pseudomonas aeruginosa
  MIC: 1 to 2 µg/mL (≈ 1.35 to 2.69 µM)
[4]
  MIC: 1 to 2 µg/mL (≈ 1.35 to 2.69 µM)
[5]
  Septicemia PD50 (± SE): <10.4 mg/kg
[6]
  Septicemia PD50 (± SE): <1.3 mg/kg
